In publication PMC11054487, “Species-Specific Unbound Fraction Differences in Highly Bound PFAS: A Comparative Study across Human, Rat, and Mouse Plasma and Albumin” (Toxics, 2024):

Tests used:
[1] = biological target: T1, human serum albumin (HSA) (Homo sapiens, UniProt P02768); assay: Presaturation equilibrium dialysis, fraction unbound in human serum albumin solution; type: in vitro ADME; details: 4% human serum albumin in PBS, 5 μM PFAS, value (CV); for fraction unbound at 18 h, 5 µM: 4% human serum albumin (HSA) solution, read-out: Fraction Unbound (fu) and Coefficient of Variance (CV), HSA
T1 construct: purchased Sigma-Aldrich
Protocol: (§1) Each PFAS:matrix combination was assessed in quadruplicate.
(§2) The injection volume for each sample was 5 µL.

mouse (CD-1) plasma = assay: Presaturation equilibrium dialysis, fraction unbound in CD-1 mouse plasma; type: in vitro ADME; details: 5 μM PFAS, 18 h, 37 °C, value (CV)
Protocol: as §1, §2

rat (Wistar-Han) plasma = assay: Presaturation equilibrium dialysis, fraction unbound in rat plasma; type: in vitro ADME; details: 5 μM PFAS, 18 h, 37 °C, value (CV)
Protocol: as §1, §2

mouse (C57BL/6) plasma = assay: Presaturation equilibrium dialysis, fraction unbound in C57BL/6 mouse plasma; type: in vitro ADME; details: 5 μM PFAS, 18 h, 37 °C, value (CV)
Protocol: as §1, §2

[2] = humans; cited from earlier work
rat serum albumin (RSA) = rat serum albumin (RSA) (Rattus norvegicus, UniProt P02770); assay: Presaturation equilibrium dialysis, fraction unbound in rat serum albumin solution; details: for fraction unbound at 18 h, 5 µM: rat
Protocol: (§3) The equilibrium dialysis device (EQD) HTD96 (Gales Ferry, CT, USA) was assembled according to manufacturer instructions. DPBS buffer solutions were prepared by adding PFAS with a concentration of either approximately five-fold of the estimated fu values based on initial available data or assumed to be 0.001 if no data was available. The dialysis apparatus and membranes assembled were pre-saturated (250 µL) three times in total with PFAS spiked DPBS buffer solution; twice for 1 h followed by a final 18-h pre-saturation. This same solution was used on the receiver side of the EQD. […] This 4% albumin was used in the albumin binding study to recapitulate plasma concentration, as human albumin concentration in plasma is 3.5–4.5 g/dL (530–680 µM). The matrix was diluted five-fold using DPBS for PFAS that had preliminary fu values lower than 0.01. Dimethylsulfoxide (DMSO) stock solutions of test PFAS were prepared at 500 μM and added to species-specific plasma or 4% albumin to a final concentration of 5 μM with 1% DMSO. Next, 150 μL of PFAS spiked DPBS was added to the receiver side of the membrane and 150 μL of compound spiked matrix was added to the donor side. […] Each PFAS:matrix combination was assessed in quadruplicate. For sample collection, 15 μL of buffer and 45 μL of matrix were sampled from the dialysis device into a 96-deep well plate and matrix-matched with either blank buffer or matrix. The samples were then quenched with 200 μL of cold acetonitrile containing internal standard (tolbutamide 30 nM and carbamazepine 12 nM) to precipitate proteins. Next, the plates were sealed and placed on a vortex mixer for 1 min, and then centrifuged (Beckman Coulter, Fullerton, CA, USA) at 3000 rpm for 5 min at room temperature. Lastly, the supernatant was transferred to a new 96-well plate, fully dried down under nitrogen gas, reconstituted with 200 µL of 50/50 (v/v) HPLC grade water/acetonitrile, and vortexed for 1 min prior to LC-MS/MS analysis.
(§4) LC-MS/MS analyses were performed on a SCIEX Triple Quad 5500 mass spectrometer (SCIEX, Concord, ON, Canada) equipped with Turbo Ion Spray interface. […] All instruments were controlled and synchronized by SCIEX Analyst software (version 1.6.3). Mobile phases compositions were 0.1% formic acid in water (mobile phase A) and 0.1% formic acid in acetonitrile (mobile phase B). […] The column was equilibrated at 5% B for 0.5 min before injecting samples. The total run time for each injection was 6 min. The chromatographic separation was conducted on a Phenomenex Kinetex C18 100Å 30 × 2.1 mm column (Torrance, CA, USA) with a flow rate of 0.5 mL/min. The injection volume for each sample was 5 µL. Multiple-reaction-monitoring (MRM) mode using specific precursor/product ion transitions was used for quantification. Data processing was performed using SCIEX Analyst software (version 1.6.3).
(§5) The calculations for fu are shown in Equations (1) and (2), where D is the dilution factor and fu,d is the diluted fu shown below. All calculations are based on area ratios (analyte peak area/IS peak area), and MS responses used for calculations were all in linear ranges. […] (1) Diluted fud=Receiver Area Ratio/Donor Area Ratio (2) Undiluted fu=1/D/1/fu,d−1+1/D
(§6) Albumin concentrations for rodents have been reported in the literature as rat: 3.0 g/dL; CD-1 mice: 2.7 g/dL; C57BL/6 mice: 2.9 g/dL [53].

[3] = biological target: mouse serum albumin (MSA) (Mus musculus, UniProt P07724); assay: Presaturation equilibrium dialysis, fraction unbound in mouse serum albumin solution; details: for fraction unbound at 18 h, 5 µM: mouse
Protocol: as §3, §4, §5, §6

human plasma = assay: Presaturation equilibrium dialysis, fraction unbound in human plasma; type: in vitro ADME; details: 5 μM PFAS, 18 h, 37 °C, value (CV)
Protocol: as §1, §2

[4] = as above; type: in vitro ADME; details: human, 5 μM PFAS, 37 °C, value (CV), read-out: Fraction Unbound (fu) and Coefficient of Variance (CV), Human Plasma
Protocol: as §1, §2

[5] = Presaturation equilibrium dialysis, fraction unbound in CD-1 mouse plasma; type: in vitro ADME; details: 5 μM PFAS, 37 °C, value (CV), read-out: Fraction Unbound (fu) and Coefficient of Variance (CV), CD-1 Plasma
Protocol: as §1, §2

[6] = Presaturation equilibrium dialysis, fraction unbound in rat plasma; type: in vitro ADME; details: Wistar-Han rat plasma, 5 μM PFAS, 37 °C, value (CV), read-out: Fraction Unbound (fu) and Coefficient of Variance (CV), Rat Plasma
Protocol: as §1, §2

[7] = Presaturation equilibrium dialysis, fraction unbound in C57BL/6 mouse plasma; type: in vitro ADME; details: 5 μM PFAS, 37 °C, value (CV), read-out: Fraction Unbound (fu) and Coefficient of Variance (CV), C57BL/6 Plasma
Protocol: as §1, §2

[8] = 3% rat serum albumin, value (%CV)
[9] = 4% rat serum albumin in PBS, 5 μM PFAS, value (CV)
[10] = 3% mouse serum albumin, value (%CV)
[11] = 4% mouse serum albumin in PBS, 5 μM PFAS, value (CV)
[12] = 4% rat serum albumin (RSA) solution, Fraction Unbound (fu) and Coefficient of Variance (CV), RSA, 4% rat serum albumin in PBS, 5 μM PFAS, value (CV)
[13] = isolated protein, Fraction unbound (fu) and %CV, RSA 3%, 3% rat serum albumin, value (%CV)
[14] = 4% mouse serum albumin (MSA) solution, Fraction Unbound (fu) and Coefficient of Variance (CV), MSA, 4% mouse serum albumin in PBS, 5 μM PFAS, value (CV)
[15] = isolated protein, Fraction unbound (fu) and %CV, MSA 3%, 3% mouse serum albumin, value (%CV)

rat serum albumin (RSA), sequence (P02770 25-608): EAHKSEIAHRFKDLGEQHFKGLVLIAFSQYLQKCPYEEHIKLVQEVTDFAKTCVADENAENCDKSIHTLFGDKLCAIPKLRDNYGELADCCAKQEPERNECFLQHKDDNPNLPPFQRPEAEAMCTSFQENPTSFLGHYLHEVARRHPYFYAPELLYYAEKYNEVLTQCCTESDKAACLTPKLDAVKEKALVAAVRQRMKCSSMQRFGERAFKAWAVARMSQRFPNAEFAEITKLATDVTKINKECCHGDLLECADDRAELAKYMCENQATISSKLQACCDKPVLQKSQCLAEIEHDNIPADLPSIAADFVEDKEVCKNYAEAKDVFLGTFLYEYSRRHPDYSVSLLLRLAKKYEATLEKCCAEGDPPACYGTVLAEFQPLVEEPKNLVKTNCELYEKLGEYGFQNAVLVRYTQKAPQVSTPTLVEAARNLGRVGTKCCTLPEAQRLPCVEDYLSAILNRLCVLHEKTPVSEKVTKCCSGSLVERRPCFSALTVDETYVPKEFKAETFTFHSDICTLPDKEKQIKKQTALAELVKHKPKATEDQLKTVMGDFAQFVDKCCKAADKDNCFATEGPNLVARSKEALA
T1 sequence (P02768 25-609): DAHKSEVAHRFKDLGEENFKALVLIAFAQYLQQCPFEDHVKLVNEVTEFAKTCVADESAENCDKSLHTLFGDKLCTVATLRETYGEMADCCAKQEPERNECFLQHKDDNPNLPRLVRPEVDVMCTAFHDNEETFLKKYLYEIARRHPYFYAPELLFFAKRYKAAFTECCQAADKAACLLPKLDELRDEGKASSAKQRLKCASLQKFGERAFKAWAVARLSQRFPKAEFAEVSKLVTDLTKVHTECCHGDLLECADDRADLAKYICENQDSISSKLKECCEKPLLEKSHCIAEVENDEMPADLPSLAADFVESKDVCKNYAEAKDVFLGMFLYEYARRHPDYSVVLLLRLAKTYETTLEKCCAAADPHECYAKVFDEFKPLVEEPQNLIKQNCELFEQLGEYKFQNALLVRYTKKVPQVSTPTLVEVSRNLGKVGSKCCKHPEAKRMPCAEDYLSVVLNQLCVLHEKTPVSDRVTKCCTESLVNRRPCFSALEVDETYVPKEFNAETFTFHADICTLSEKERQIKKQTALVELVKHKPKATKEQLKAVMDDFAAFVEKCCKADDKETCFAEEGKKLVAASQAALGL
mouse serum albumin (MSA), sequence (P07724 25-608): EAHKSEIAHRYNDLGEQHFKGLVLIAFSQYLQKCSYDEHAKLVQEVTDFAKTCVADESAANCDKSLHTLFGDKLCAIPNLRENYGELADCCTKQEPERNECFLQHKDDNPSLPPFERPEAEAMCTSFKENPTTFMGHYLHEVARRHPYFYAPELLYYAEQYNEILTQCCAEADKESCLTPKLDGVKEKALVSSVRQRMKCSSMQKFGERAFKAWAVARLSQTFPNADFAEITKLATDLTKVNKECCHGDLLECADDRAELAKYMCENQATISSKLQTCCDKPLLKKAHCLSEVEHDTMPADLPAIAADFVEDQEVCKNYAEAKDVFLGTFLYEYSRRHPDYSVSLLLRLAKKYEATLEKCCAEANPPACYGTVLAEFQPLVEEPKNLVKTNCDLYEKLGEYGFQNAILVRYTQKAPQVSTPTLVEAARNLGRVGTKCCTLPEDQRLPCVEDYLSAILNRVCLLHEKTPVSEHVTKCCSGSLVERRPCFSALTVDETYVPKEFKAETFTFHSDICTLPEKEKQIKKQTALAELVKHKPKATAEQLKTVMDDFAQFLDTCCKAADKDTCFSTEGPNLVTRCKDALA

| Compound | Fraction Unbound (fu) and Coefficient of Variance (CV), HSA [1] | Fraction Unbound (fu) and Coefficient of Variance (CV), CD-1 Plasma (mouse (CD-1) plasma) | Fraction Unbound (fu) and Coefficient of Variance (CV), Rat Plasma (rat (Wistar-Han) plasma) | Fraction Unbound (fu) and Coefficient of Variance (CV), C57BL/6 Plasma (mouse (C57BL/6) plasma) | half-lives [2] [days] | t1/2 [2] | Fraction unbound (fu) and %CV, RSA 3% (rat serum albumin (RSA); [8]) | Fraction Unbound (fu) and Coefficient of Variance (CV), RSA (rat serum albumin (RSA); [9]) | Fraction unbound (fu) and %CV, MSA 3% [3, 10] | Fraction Unbound (fu) and Coefficient of Variance (CV), MSA [3, 11] | Fraction Unbound (fu) and Coefficient of Variance (CV), Human Plasma (human plasma) | fraction unbound at 18 h, 5 µM [4] | fraction unbound at 18 h, 5 µM [1] | fraction unbound at 18 h, 5 µM [5] | fraction unbound at 18 h, 5 µM [6] | fraction unbound at 18 h, 5 µM [7] | fraction unbound at 18 h, 5 µM (rat serum albumin (RSA); [12]) | fraction unbound at 18 h, 5 µM (rat serum albumin (RSA); [13]) | fraction unbound at 18 h, 5 µM [3, 14] | fraction unbound at 18 h, 5 µM [3, 15] |
| --- | --- | --- | --- | --- | --- | --- | --- | --- | --- | --- | --- | --- | --- | --- | --- | --- | --- | --- | --- | --- |
| O=S(=O)(O)C(F)(F)C(F)(F)C(F)(F)C(F)(F)F [PFBS, perfluorobutanesulfonic acid] | 0.056(5%) | 0.261(7%) | 0.0542(3%) | 0.28(5%) | 26 | 26 days | 0.0168 (8%) | 0.0208(8%) | 0.0321 (11%) | 0.0396(11%) |  |  |  |  |  |  |  |  |  |  |
| O=C(O)C(F)(F)C(F)(F)C(F)(F)F [PFBA, Perfluorobutanoic acid] | 0.15(5%) | 0.757(6%) | 0.37(24%) | 0.767(2%) | 3 | 3.1 days | 0.18 (3%) | 0.216(3%) | 0.206 (23%) | 0.24(22%) |  |  |  |  |  |  |  |  |  |  |
| O=S(=O)(O)C(F)(F)C(F)(F)C(F)(F)C(F)(F)C(F)(F)C(F)(F)C(F)(F)C(F)(F)F [PFOS, perfluorooctanesulfonic acid] | 0.000524(13%) |  | 0.00109(4%) | 0.00256(8%) |  | 3.3–5.4 years | 0.000697 (25%) | 0.000852(25%) | 0.00102 (19%) | 0.00126(19%) |  |  |  |  |  |  |  |  |  |  |
| O=S(=O)(O)CCC(F)(F)C(F)(F)C(F)(F)C(F)(F)C(F)(F)C(F)(F)F [6:2 FtS, 6:2 fluorotelomer sulfonate] | 0.00746(0%) | 0.0255(2%) | 0.0236(4%) | 0.0253(2%) |  |  | 0.00892 (4%) | 0.0111(4%) | 0.0091 (9%) | 0.0113(9%) | 0.0197(2%) |  |  |  |  |  |  |  |  |  |
| O=C(O)C(F)(F)C(F)(F)C(F)(F)C(F)(F)F [PFPA, perfluoropentanoic acid] | 0.0933(6%) | 0.609(4%) | 0.18(2%) | 0.577(5%) |  |  | 0.0769 (4%) | 0.0942(4%) | 0.0809 (11%) | 0.0987(11%) | 0.0888(3%) |  |  |  |  |  |  |  |  |  |
| O=S(=O)(O)C(F)(F)C(F)(F)C(F)(F)C(F)(F)C(F)(F)C(F)(F)F [PFHxS, perfluorohexanesulfonic acid] |  |  |  |  |  |  |  |  |  |  |  | 0.000695 | 0.000245 | 0.0128 | 0.00076 | 0.013 | 0.000573 | 0.00047 | 0.00225 | 0.00181 |
| O=C(O)C(F)(F)C(F)(F)C(F)(F)C(F)(F)C(F)(F)F [PFHxA, perfluorohexanoic acid] | 0.0336(7%) | 0.169(5%) | 0.0358(7%) | 0.182(7%) |  |  | 0.0212 (4%) | 0.0264(4%) | 0.0266 (11%) | 0.0329(11%) | 0.038(6%) |  |  |  |  |  |  |  |  |  |
| O=C(O)C(F)(F)C(F)(F)C(F)(F)C(F)(F)C(F)(F)C(F)(F)C(F)(F)C(F)(F)C(F)(F)C(F)(F)C(F)(F)F [PFDoDA, perfluorododecanoic acid] |  |  |  |  |  |  |  |  |  |  |  | 0.000105 | 0.000157 | 0.000222 | 7.96e-05 | 0.000205 | 9.64e-05 | 7.77e-05 | 0.000217 | 0.000175 |
| O=C(O)C(F)(F)C(F)(F)C(F)(F)C(F)(F)C(F)(F)C(F)(F)C(F)(F)C(F)(F)C(F)(F)C(F)(F)F [PFUDA, perfluoroundecanoic acid] | 0.000417(23%) | 0.000524(15%) | 0.000349(20%) |  |  |  | 0.000147 (28%) | 0.000178(28%) | 0.000417 (19%) | 0.000513(19%) | 0.000419(24%) |  |  |  |  |  |  |  |  |  |
